In article PMC8761912, “Cryptosporidium parvum Pyruvate Kinase Inhibitors With in vivo Anti-cryptosporidial Efficacy” (Frontiers in Microbiology, 2022):
Like-named read-outs stand apart in the source and are kept apart here.

Columns and labels:
Solubility = format: physicochemical; conditions: DMSO
[1] = Physicochemical properties adapted from PubChem; conditions: based on Supplementary Table 2 properties
Description: Supplementary Table S2. Physicochemical properties of identified CpPyK inhibitors (Adapted from: https://pubchem.ncbi.nlm.nih.gov).
NSC Molecular Molecular Number of Number of Number of Polar number IUPAC name formula weight cLog(p) Hydrogen bond Hydrogen bond rotatable surface donors acceptors bonds area (Å²) […]

[2] = molecular target: recombinant CpPyK (rCpPyK) protein (Cryptosporidium parvum, UniProt Q5CSM7); test: rCpPyK enzymatic activity inhibition assay (ATP detection, Cell Titer-Glo luminescence); format: biochemical
Description: The in vitro enzymatic activity of the rCpPyK protein was determined by quantitating the amount of ATP produced by the transfer of a phosphate group from phosphoenolpyruvate to adenosine diphosphate (ADP) in the presence of varying concentrations of the recombinant protein (Figure 1A). A typical assay contained 0.5 mM phosphoenolpyruvate, 0.6 mM ADP, 50 mM Tris buffer pH 7.5, 60 mM MgSO4, 100 mM KCl, and varying concentrations of rCpPyK incubated for 3 h at room temperature. The ATP generated was detected in a reaction volume of 50 μl in white opaque-walled 96 well plates by the luciferase-based Cell Titer-Glo 2.0 reagent (Promega) following the manufacturer’s instructions. The enzyme kinetics of rCpPyK were determined by using varying phosphoenolpyruvate (0–8 mM) and ADP (0–2 mM) concentrations in an enzymatic reaction catalyzed by a fixed concentration of the recombinant protein (6 ng/μl). In all assays, reaction mixtures without rCpPyK were included as negative controls. Three independent assays were performed for each experiment, and samples were run in triplicate. The luminescence generated was recorded using a multi-mode microplate reader (Spectra Max iD3; Molecular Devices, United States). GraphPad PRISM® v8 software was used to fit the Michaelis–Menten model directly to the substrate-velocity data to determine the enzymatic kinetic parameters for rCpPyK.
The Diversity Set VI chemical library (Supplementary Table 1) was obtained from the National Cancer Institute (NCI)/Developmental Therapeutics Program (DTP) Open Repository collection of chemical compounds.^1 Compounds were individually reconstituted in molecular biology grade dimethyl sulfoxide (DMSO) from Sigma-Aldrich and stored at −20°C. From the library, 1,424 compounds were screened in 96-well plates using the rCpPyK catalyzed enzyme assay to identify potential CpPyK inhibitors. The reactions were performed in 50 μl reaction volume containing 0.5 mM phosphoenolpyruvate, 0.6 mM ADP, 50 mM Tris buffer pH 7.5, 60 mM MgSO4, 100 mM KCl, and 6 ng/μl of rCpPyK protein with or without compound. The concentration of DMSO in all reaction mixtures was 1% (v/v). Control reactions without rCpPyK protein were included for background subtraction. Following 3 h of incubation at room temperature, an equal volume of the Cell Titer-Glo 2.0 reagent was added to each well, and the luminescence produced was recorded as relative luminescence units (RLU) after 10 min of incubation using a multi-mode microplate reader (Spectra Max iD3; Molecular Devices, United States). The mean percent inhibition (MPI) of rCpPyK activity by each compound was derived by dividing the difference in luminescence (RLU) between the compound-treated wells and the DMSO-treated wells by the luminescence of the DMSO-treated wells and multiplying the product by 100:
(1) MPI=[(MeanRLUDMSO-treated-MeanRLUCompound-treated)÷MeanRLUDMSO-treated]×100.
Half maximal inhibitory concentration (IC50) values were determined by applying a non-linear regression analysis curve fit to the mean dose-response data for varying concentrations of each compound using GraphPad PRISM® v8. Reactions were performed in triplicate and repeated at least thrice.

C. parvum = test: In vitro anti-Cryptosporidium activity in infected HCT-8 cells (immunofluorescence assay); format: cell-based, Cryptosporidium parvum; conditions: for effect on in vitro proliferation and viability of C. parvum: 25 μM, added immediately after infection, 48 h of culture, vs untreated parasites; for EC50: Cryptosporidium parvum; for Selectivity index (CC50/EC50): HCT-8 CC50 / anti-C. parvum EC50; for effect on proliferation of intracellular C. parvum in HCT-8 cells: varying concentrations, 0 h or 2 h PI, analysed 48 h PI, vs infected cultures without compound
Description: Once confluent, the cells were infected with 10^5 freshly excysted C. parvum sporozoites per well, immediately followed by the addition of anti-CpPyK compounds (reconstituted in DMSO) to one set of wells. Control infected cells were treated with DMSO volumes equivalent to those used for the compound-treated cultures. Paromomycin reconstituted in distilled sterile water, served as a positive control at a concentration of 200 μM. […] Briefly, the medium was removed from the culture wells, and the cells were washed two times with PBS before fixation with pre-chilled methanol-acetic acid (9:1) for 5 min at room temperature. Residual fixative was removed by rinsing the wells with PBS. Cells were rehydrated and permeabilized by washing twice with a buffer containing 0.1% Triton X-100, 0.35 M NaCl, and 0.13 M Tris-base, pH 7.6. Normal goat serum (5% in PBS) was used as a blocking agent, and the cell monolayer was stained with a fluorescein-labeled anti-C. parvum polyclonal antibody (Sporo-Glo™; Waterborne, Inc.) overnight at 4°C. The stained cells were washed twice with PBS followed by the addition of 200 μl water to each well. Plates were then imaged with an inverted fluorescence microscope using a 20× objective. The fluorescence generated by intracellular C. parvum parasites was quantified from nine microscopic fields per well of a 96-well plate using the batch process function in ImageJ version v1.50 (NIH, United States) after setting a threshold for the detection of parasites. Control wells with uninfected monolayers were included for background subtraction. Experiments were performed in triplicate and repeated at least three times.
One set of wells with confluent HCT-8 cells received CpPyK inhibitors immediately after C. parvum infection, while the same compounds were added to the other set of wells 2 h post-infection (PI). Control infected cells were treated with varying volumes of DMSO equivalent to the ones used for the compound-treated cultures. Cell monolayers were processed for immunofluorescence analysis after 48 h of incubation as described above. Samples were run in triplicate and three independent assays were performed. EC50 values were calculated using non-linear regression analysis of the mean dose-response curve data in GraphPad PRISM® v8.

[3] = ref https://pubchem.ncbi.nlm.nih.gov, cited from earlier work; for Polar surface area: topological
[4] = HCT-8, read-out: Anti-C. parvum EC50, 0 h PI
[5] = HCT-8, read-out: Anti-C. parvum EC50, 2 h PI
[6] = 6 ng/μl rCpPyK, 3 h at room temperature, read-out: Enzyme inhibition IC50

Chain of recombinant CpPyK (rCpPyK) protein (Q5CSM7 entry or part of it): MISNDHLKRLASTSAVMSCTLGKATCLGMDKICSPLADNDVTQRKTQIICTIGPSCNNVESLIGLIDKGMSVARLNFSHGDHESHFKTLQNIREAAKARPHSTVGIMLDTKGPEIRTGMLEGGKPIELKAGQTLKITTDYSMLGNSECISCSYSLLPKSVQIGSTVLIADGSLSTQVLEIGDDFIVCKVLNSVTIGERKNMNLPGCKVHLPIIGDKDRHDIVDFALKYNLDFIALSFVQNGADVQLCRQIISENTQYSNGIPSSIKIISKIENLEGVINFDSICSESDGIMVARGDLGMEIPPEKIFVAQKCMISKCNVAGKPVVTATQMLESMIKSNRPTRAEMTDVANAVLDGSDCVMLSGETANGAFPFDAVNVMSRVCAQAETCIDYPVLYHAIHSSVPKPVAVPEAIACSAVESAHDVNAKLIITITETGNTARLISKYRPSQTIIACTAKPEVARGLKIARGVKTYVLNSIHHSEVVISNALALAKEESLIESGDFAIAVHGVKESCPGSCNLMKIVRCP

c1ccc(-c2nnc(-c3ccccn3)[nH]2)nc1 [NSC234945, 2-(3-pyridin-2-yl-1H-1,2,4-triazol-5-yl)pyridine]
solubility in DMSO (Solubility): high solubility in DMSO
conformity to Lipinski's and Veber's rules for drug-likeness [1]: conform
IC50 [2]: 235 µM
effect on in vitro proliferation and viability of C. parvum (C. parvum): significant inhibitory effect
EC50 (C. parvum; [4]): 86 µM
EC50 (C. parvum; [5]): 89.6 µM
Selectivity index (CC50/EC50) (C. parvum): 5.02
effect on proliferation of intracellular C. parvum in HCT-8 cells (C. parvum): significant (P < 0.05) concentration-dependent inhibitory effect
Number of Hydrogen bond acceptors [3]: 4
Number of Hydrogen bond donors [3]: 1
Polar surface area [3]: 67.4 Å²

N#C/C(=C\c1cc(O)c(O)c(O)c1)C(N)=O [NSC638080, (E)-2-cyano-3-(3,4,5-trihydroxyphenyl)prop-2-enamide]
conformity to Lipinski's and Veber's rules for drug-likeness [1]: conform
IC50 [2, 6]: 97.1 µM
effect on in vitro proliferation and viability of C. parvum (C. parvum): significant inhibitory effect
EC50 (C. parvum; [4]): 10.9 µM
EC50 (C. parvum; [5]): 14.7 µM
Selectivity index (CC50/EC50) (C. parvum): 68.96
effect on proliferation of intracellular C. parvum in HCT-8 cells (C. parvum): significant (P < 0.05) concentration-dependent inhibitory effect
Number of Hydrogen bond acceptors [3]: 5
Number of Hydrogen bond donors [3]: 4
Polar surface area [3]: 128 Å²

CCOc1ccc(/C=C2\CCc3ccccc3C2=O)cc1 [NSC252172, (2E)-2-[(4-ethoxyphenyl)methylidene]-3,4-dihydronaphthalen-1-one]
conformity to Lipinski's and Veber's rules for drug-likeness [1]: conform
IC50 [2, 6]: 123 µM
effect on in vitro proliferation and viability of C. parvum (C. parvum): significant inhibitory effect
EC50 (C. parvum; [4]): 17.6 µM
EC50 (C. parvum; [5]): 18.7 µM
Selectivity index (CC50/EC50) (C. parvum): 15.10
effect on proliferation of intracellular C. parvum in HCT-8 cells (C. parvum): significant (P < 0.05) concentration-dependent inhibitory effect
Number of Hydrogen bond acceptors [3]: 2
Number of Hydrogen bond donors [3]: 0
Polar surface area [3]: 26.3 Å²

Cc1cc2c(c(C#N)c1C)NC=NC2C (centres unmarked) [NSC303244, 4,6,7-trimethyl-1,4-dihydroquinazoline-8-carbonitrile]
conformity to Lipinski's and Veber's rules for drug-likeness [1]: conform
IC50 [2, 6]: 243 µM
effect on in vitro proliferation and viability of C. parvum (C. parvum): significant inhibitory effect
EC50 (C. parvum; [4]): 10.3 µM
EC50 (C. parvum; [5]): 15.8 µM
Selectivity index (CC50/EC50) (C. parvum): 64.15
effect on proliferation of intracellular C. parvum in HCT-8 cells (C. parvum): significant (P < 0.05) concentration-dependent inhibitory effect
Number of Hydrogen bond acceptors [3]: 2
Number of Hydrogen bond donors [3]: 1
Polar surface area [3]: 48.2 Å²
